Measurements reported in US20240247031A1, “COMPOSITION FOR TREATING CANCER CONTAINING TELOMERASE-TARGETING GNRH ANTAGONIST-DERIVED PEPTIDE HS1002” (Research & Business Foundation Sungkyunkwan University, priority 2023, published 2024).

Key:
[1] = test system: telomerase; test: Telomerase activity quantification qPCR in treated LNCaP cells (FIG. 10, 11); format: cell-based, human; conditions: FIG. 11
Description: After treatment with GV1001, HS1001, HS1002, and GnRH, the changes in hTERT mRNA and protein expression level were investigated for each peptide. The drug treatment was performed every 24 h considering the stability of peptides in aqueous solutions. To investigate the telomerase activity reducing effect of the peptides, prostate cancer cell lines (LNCaP) were treated with each drug at 300 μM every 24 h for a total of 72 h and then measured for telomerase activity through qPCR. The proteins in a cell lysate were quantified to obtain a telomerase product extended by the same amount of proteins, and qPCR was performed using the telomerase as a template.
In the treatment with the peptides, the change in telomerase activity was investigated. The cells were cultured in 100-mm plates each, and about 24 h later, the cells were treated with the peptides synthesized in Example 3 at a concentration of 300 μM before incubation. The cells were cultured in a 37° C., 5% CO2 incubator using 1% FBS RPMI media. The cells were harvested 72 h after the peptide treatment and measured for telomerase activity. A telomerase activity quantification qPCT analysis kit (ScienCell, Carlsbad, CA, USA) was used.

[2] = test system: LNCaP tumors; test: LNCaP xenograft model, tumor volume, tumor weight and body weight (FIG. 17); format: in vivo; conditions: LNCaP xenograft BALB/c nude mice, 1 mg/kg/day s.c., 13 days
Description: All mice were purchased from Central Lab Animal Inc. ([…]). They were raised in a 12 h environmental light/dark cycle with controlled temperature (22±2° C.) conditions. The experimental protocol was approved by the Sungkyunkwan University Institutional Animal Care and Use Committee (SKKUIACUC2021-06-27-1, SKKUIACUC2023-01-07-1). For the establishment of tumors, LNCaP (1×10^7), MC38 (2×10^5), and 4T1 (1×10^6) suspended in serum-free media containing 50% Matrigel was subcutaneously administered in the right flank of mice, respectively. The tumor volumes (V) were calculated using a caliper and the standard equation: V (mm^3)=0.52 (ab^2) (a=length, b=width). Once the tumor reached 100-200 mm^3, the mice were randomly divided into different groups and subcutaneously injected with a vehicle or each peptide every day.
To investigate the anticancer effect of HS1002, the present inventors observed the volume of cancer cells after transplanting the cancer cells into experimental animals. Specifically, mice (4-week-old male BALB/c nude mice; Central Lab. Animal Inc., Seoul, Korea) were prepared, and tumor cells (1×10^7 LNCaP cells) suspended in 1 mL of a serum-free medium containing 50% Matrigel were percutaneously injected into the upper flank of each nude mouse. When the tumor cell volume reached about 200 mm^3, the mice were randomly assigned to a vehicle control group, a leuprolide acetate-treated group, and test groups (GV1001-treated group and HS1002-treated group), respectively. Leuprolide acetate (0.1 mg/kg/day) and GV1001 and HS1002 (1 mg/kg/day) were injected subcutaneously for 13 days.

[3] = test system: Ki-67 and hTERT in LNCaP tumor tissue; test: Ki-67 immunohistochemistry and hTERT immunoblotting in xenograft tumor tissue (FIG. 18); format: in vivo, mouse; conditions: s.c. administration, compared with the control group
Description: Mice were sacrificed, and the excised tumors were fixed in 10% formalin and impregnated with paraffin. For pathological examination, immunohistochemistry was performed by the avidin-biotin complex method using Ki-67 antibodies. The immune response was visualized with a reagent (3,3-diaminobenzidine) and counter-stained with Mayer's hematoxylin. TUNEL assay in tissue was performed using ApopTag Plus Peroxidase in Situ Apoptosis Detection kits (Intergen, Purchase, NY)) according to the manufacturer's indications. In summary, paraffin was removed from slides, and the slides were placed in 3% hydrogen peroxide to inhibit endogenous peroxidase. The slides were incubated in a reaction buffer containing an enzyme (terminal deoxynucleotidyl transferase) at 37° C. for 1 h. The slides were incubated with peroxidase-conjugated anti-digoxigenin antibodies for 30 min, and the reaction product was visualized with a solution containing 2 mmol hydrogen peroxide (0.03% 3,3-diaminobenzidine solution). Counterstaining was performed with 0.5% methyl green. Ki-67- and TUNEL-positive cells were counted and expressed as an average of the five highest areas within a single×200 field. A portion of tumor tissue was homogenized, followed by immunoblotting for hTERT.

[4] = test system: AKT, ERK1/2, and mTOR pathways; test: Western blot of hTERT-regulating signaling proteins in LNCaP (FIG. 13); format: cell-based, human; conditions: LNCaP cells
Description: The cells and tumor tissues were homogenized using the PRO-PREP™ extraction solution (iNtRON Biotechnology, Seongnam, Korea). After incubation, the homogenate was centrifuged at 16,000×g for 20 min at 4° C., and the supernatant was collected for western blot analysis. Subsequently, an equivalent quantity of protein was separated using sodium dodecyl sulfate polyacrylamide gels and transferred onto a polyvinylidene difluoride (PVDF) membrane. The PVDF membranes were incubated with the primary antibodies overnight at 4° C., washed with tris-buffered saline, and then incubated with HRP-conjugated anti-mouse or anti-rabbit antibodies. The bands were visualized using a ChemiDoc imaging system (Bio-Rad, Hercules, CA, USA). The band intensities were determined using an Image J software.
Furthermore, a western blot analysis assessed the expression levels of signaling pathway proteins that regulate hTERT in LNCaP cells treated with HS1002. […] In addition, the expression of AKT, ERK1/2, and mTOR was unchanged in both the control and HS1002 groups (FIG. 13).

[5] = test system: LNCaP; test: cells; format: cell-based, human; conditions: human, 48 h
Description: (§1) To evaluate anticancer activities of the produced peptides on various types of cancer cells, MTT analysis was performed. Human prostate cancer cell lines (LNCaP, PC3, and DU145), human breast cancer cell lines (MDA-MB-231 and MCF-7), lung cancer cell line (A549), and ovarian cancer cell line (SKOV3) were cultured in RPMI media supplemented with 1% penicillin/streptomycin and 1% fetal bovine serum (all from Life Technologies, Grand Island, NY). The cells were seeded in 96-well plates containing 100 μL of growth media for 24 h. The media were removed, and then 100 μL of the peptide (solvent DPBS) at each concentration was added to each well and incubated at 37° C. for 48 h. After incubation for 48 h, 100 μL of MTT reagent was added to each well. The cells were incubated at 37° C. for 4 h, and then the supernatant was removed. Formazan crystals were dissolved in 100 μL of DMSO with gentle stirring at 37° C. for 10 min. The absorbance per well was measured at 540 nm using a VERSA max microplate reader (Molecular Devices Corp.).

[6] = test system: MCF-7; test: cells; format: cell-based, human; conditions: human, 48 h
Description: as §1

CCNC(=O)[C@@H]1CCCN1C(=O)[C@@H](NC(=O)[C@H](Cc1ccccc1)NC(=O)[C@H](CCCNC(=N)N)NC(=O)[C@H](CC(C)C)NC(=O)[C@H](CCCNC(=N)N)NC(=O)[C@H](Cc1ccc(O)cc1)NC(=O)[C@H](CO)NC(=O)[C@H](Cc1c[nH]c2ccccc12)NC(=O)[C@H](Cc1c[nH]cn1)NC(=O)[C@@H]1CCC(=O)N1)[C@@H](C)CC [HS1002]
telomerase activity compared with GV1001 [1]: better telomerase activity than GV1001
other toxicity [2]: no other toxicity
reduction of tumor volume [2]: about 50%
reduction of tumor weight [2]: about 50%
Ki-67 protein expression level in tumor tissues [3]: distinctively reduced
hTERT protein expression level in tumor tissues [3]: distinctively reduced
expression of p-AKT [4]: significantly downregulated
expression of p-ERK1/2 [4]: significantly downregulated
expression of p-mTOR [4]: significantly downregulated
expression of AKT, ERK1/2, and mTOR ([4]; total proteins): unchanged
Cytotoxicity (IC50) LNCaP [5]: 6.83 ± 0.72 µg/mL
Cytotoxicity (IC50) MCF-7 [6]: 53.31 ± 1.79 µg/mL
